“Also recorded” adds a separate entry of the source. Residues, ends and D or L forms follow the SMILES beside them.
Experiments:
[1] = tested on: mKate2-tagged Kv1.3 channels; assay: A-HgTx wash-off and effect on channel distribution, mKate2-tagged Kv1.3 in HEK293 cells; assay type: binding, human
Experimental: (§1) Figure 4 Confocal imaging of A-HgTx interactions (green) with mKate2-tagged Kv1.3 channels (red) transiently expressed in HEK293 cells. (A–D) Binding (A,B) of A-HgTx (2 nM) to Kv1.3-K and its displacement (C,D) by HgTx1 (40 nM). (E–H) Binding (E,F) of A-HgTx (2 nM) to K-Kv1.3 and its displacement (G,H) by HgTx1 (40 nM). (I–L) Binding (I,J) of A-HgTx (2 nM) to K-ΔKv1.3 and its displacement (K,L) by HgTx1 (40 nM). (M,N) Control measurement of the binding of A-HgTx (2 nM) to intact (no transfection) HEK293 cells. (O,P) Control measurement of the background signal in the wavelength range corresponding to the A-HgTx emission (O) from HEK293 cells expressing K-ΔKv1.3 (without addition of A-HgTx). The scale bar is equal to 20 μm. (A,E,I,M,C,G,K,O) Distribution of A-HgTx. (B,F,J,N,D,H,L,P) Distribution of mKate2-tagged Kv1.3 channels.
In A-HgTx binding experiments, cells were incubated with A-HgTx (0.15–4 nM) for 30 min (37 °C, 5% CO2) in the complete medium. […]
(§2) Fluorescence of mKate2-fused hKv1.3 was excited at the 561 nm wavelength and recorded in the 650–700 nm range. Fluorescence of A-HgTx was excited at the 488 nm wavelength and recorded in the 495–535 nm range. Distributions of A-HgTx and mKate2 fluorescence in cells were imaged using sequential scanning to avoid interference of intrinsic cellular fluorescence excited at the 488 nm with the mKate2 fluorescence.

[2] = biological target: T1, K-ΔKv1.3 (N-terminally truncated human Kv1.3 tagged with mKate2) (Homo sapiens, UniProt P22001); assay: Confocal imaging of A-HgTx binding and displacement, K-ΔKv1.3 in HEK293 cells; set-up: expressed in transfected cells; host or cells: HEK293 (transient transfection with pmKate2-KCNA3-del)
T1 sequence (P22001 53-575 limits assumed, stated change not applied): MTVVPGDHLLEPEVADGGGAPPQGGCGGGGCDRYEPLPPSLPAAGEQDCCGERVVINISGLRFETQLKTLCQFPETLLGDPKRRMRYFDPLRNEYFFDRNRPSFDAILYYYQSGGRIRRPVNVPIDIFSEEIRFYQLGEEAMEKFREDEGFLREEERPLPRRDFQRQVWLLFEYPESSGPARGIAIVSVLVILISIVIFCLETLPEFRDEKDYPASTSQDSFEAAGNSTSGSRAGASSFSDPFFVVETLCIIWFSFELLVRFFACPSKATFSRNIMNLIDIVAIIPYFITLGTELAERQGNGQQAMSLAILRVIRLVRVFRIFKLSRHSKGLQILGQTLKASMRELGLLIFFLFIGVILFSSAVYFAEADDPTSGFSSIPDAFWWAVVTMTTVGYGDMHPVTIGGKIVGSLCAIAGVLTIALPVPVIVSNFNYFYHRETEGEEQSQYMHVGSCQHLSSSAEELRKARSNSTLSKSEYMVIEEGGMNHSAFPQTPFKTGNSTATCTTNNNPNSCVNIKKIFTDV
Experimental: as §1
(§3) KCNA3 gene encoding human Kv1.3 channel (hKv1.3, Accession number NP_002223.3) was a generous gift from Dr. A. Vassilevski. […]
as §2

[3] = biological target: T2, K-Kv1.3 (human Kv1.3 N-terminally tagged with mKate2) (Homo sapiens, UniProt P22001); assay: Confocal imaging of A-HgTx binding and displacement, K-Kv1.3 in HEK293 cells
T2 construct: membrane expression of the full-length human Kv1.3 was poor in X. oocytes, deletion of N-terminal M1-D52 residues boosted; expressed in transfected cells; host or cells: HEK293 (transient transfection with pmKate2-KCNA3)
T2 sequence (P22001 whole entry, the tested form may be a part): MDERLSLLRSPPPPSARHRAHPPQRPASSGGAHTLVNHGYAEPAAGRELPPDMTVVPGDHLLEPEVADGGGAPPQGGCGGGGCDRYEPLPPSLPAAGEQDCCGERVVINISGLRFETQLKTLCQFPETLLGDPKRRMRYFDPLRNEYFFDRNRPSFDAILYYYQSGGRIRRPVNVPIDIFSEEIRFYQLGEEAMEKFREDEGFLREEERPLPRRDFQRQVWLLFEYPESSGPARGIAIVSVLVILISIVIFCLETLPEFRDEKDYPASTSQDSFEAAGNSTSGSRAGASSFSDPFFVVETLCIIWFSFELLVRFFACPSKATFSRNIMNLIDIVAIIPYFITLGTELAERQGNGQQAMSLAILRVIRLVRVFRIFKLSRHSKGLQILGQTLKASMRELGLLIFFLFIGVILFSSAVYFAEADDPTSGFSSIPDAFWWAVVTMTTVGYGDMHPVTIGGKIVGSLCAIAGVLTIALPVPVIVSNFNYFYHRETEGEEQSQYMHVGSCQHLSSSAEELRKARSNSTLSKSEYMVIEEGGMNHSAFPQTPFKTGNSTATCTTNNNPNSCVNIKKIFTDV
Experimental: as §1, §3, §2

[4] = biological target: T1, K-ΔKv1.3 (N-terminally truncated human Kv1.3 tagged with mKate2); assay: Whole-cell patch-clamp, K-ΔKv1.3 expressed in Neuro-2A cells; assay type: cell-based; set-up: expressed in transfected cells; conditions: N2a, +50 mV, 20–25 °C, pH 7.4, mean ± SEM
Experimental: The K-ΔKv1.3 channel and A-HgTx were characterized by a whole-cell patch-clamp technique. Taking into account that “the kinetic properties of the homomeric Kv channels are largely consistent across host cell lines” [42], we studied K-ΔKv1.3 presented at the membrane of mouse Neuro-2A neuroblastoma cells, which are routinely used in our electrophysiological experiments.
The ion currents were analyzed in the whole-cell configuration by depolarizing steps from −70 to 70 mV in 20 mV increments from a holding potential of −40 mV.
Test pulses having duration of 200 ms were applied stepwise with an interval of 20 s with a step of 20 mV from −70 to +70 mV then returning to a holding potential. […] Data were averaged (mean ± SEM) over ten (E) and twelve (F) cells.
(A,B) Representative series of currents before (A) and after addition of 2 nM A-HgTx (B). […]
K-ΔKv1.3-channel ion currents were recorded by the patch-clamp technique using an EPC-10 amplifier (HEKA Elektronik, Germany) in a standard whole-cell configuration. […]
Briefly, in 24–48 h after transfection, cover glasses with attached Neuro2a cells were placed in a chamber with an extracellular solution (mM): 140 NaCl, 2.8 KCl, 2 MgCl2, 2 CaCl2, 10 HEPES and 10 glucose (pH 7.4) and perfused continuously. Selection of cells for the measurements was guided by membrane fluorescence of K-ΔKv1.3. […]

[5] = tested on: intact HEK293 cells that do not express mKate2-tagged Kv1.3; assay: Control: A-HgTx binding to intact HEK293 cells; conditions: 2 nM A-HgTx; no transfection; confocal imaging
Experimental: as §1, with “channels. […]” for “channels.”
as §2

[6] = biological target: T1, K-ΔKv1.3 (N-terminally truncated human Kv1.3 tagged with mKate2); assay: Confocal imaging of A-HgTx binding and displacement, K-ΔKv1.3 in Neuro-2A cells; set-up: expressed in transfected cells; host or cells: HEK293 (transient transfection with pmKate2-KCNA3-del); conditions: 2 nM A-HgTx
Experimental: Mouse Neuro-2A neuroblastoma cells were purchased from the Russian collection of cell cultures (Institute of Cytology, Saint Petersburg, Russia). Cells were cultured in DMEM (Paneco, Russia) supplemented with 10% fetal bovine serum (PAA Laboratories, Austria) and penicillin–streptomycin 100 U/mL. Cells were subcultured twice a week. Cells were plated at a density of 3×10^4 cells per well on cover glasses coated with poly-D-lysine and 24 h latter subjected to the transfection with plasmid pmKate2-KCNA3-del as described above.
Figure S5. Confocal imaging of A-HgTx interactions with K-ΔKv1.3channels transiently expressed in Neuro-2A cells. (A, B) Distri-
(20 nM) from the complexes with K-ΔKv1.3 at the membrane of cells. Scale bar is 20 µm. Green and red colors – fluorescence of A-
HgTx and K-ΔKv1.3, respectively.
Figure S6. Concentration dependence of A-HgTx binding to K-Kv1.3 on a cell membrane that was measured as the dependence of
Rav on the concentration L of A-HgTx added to HEK293 cells transiently transfected with K-Kv1.3.
(also on this page, place not known: Neuro -2A K -ΔKv1.3. A -HgTx K -ΔKv1.3 0.0 0.5 1.0 1.5 2.0 0.0 0.5 1.0 1.5 L, nM Rav) […]

[7] = tested on: Kv1.3-K (human Kv1.3 C-terminally tagged with mKate2); assay: Confocal imaging of A-HgTx binding and displacement, Kv1.3-K in HEK293 cells
Experimental: as §1, with “channels. […]” for “channels.”
as §2

[8] = biological target: T1, K-ΔKv1.3 (N-terminally truncated human Kv1.3 tagged with mKate2); assay: Fluorescent competitive binding assay (FCBA), displacement of A-HgTx from K-ΔKv1.3; set-up: expressed in transfected cells; host or cells: HEK293 (transient transfection with pmKate2-KCNA3-del); conditions: living HEK293 cells; 2 nM A-HgTx; result in words
Source text: To quantitatively characterize formation of complexes between A-HgTx and K-ΔKv1.3 on cell membranes, the confocal images of A-HgTx bound at the membrane of the K-ΔKv1.3 presenting cells were subjected to the treatment procedure as follows. Regions of interest (ROIs) corresponding to the plasma membranes stained with K-ΔKv1.3 were selected. Using a set of these ROIs and a threshold procedure (to null a background signal from pixels without K-ΔKv1.3 signal), the binary (0;1) mask that describes membranous localization of K-ΔKv1.3 was created. The images of K-ΔKv1.3 and A-HgTx distribution were multiplied by the corresponding mask. Next, average intensities of fluorescence of K-ΔKv1.3 (Ici) and A-HgTx (Ili) were calculated for each ROI (i.e., for each i-cell), and a ratio Ri was calculated as follows. Ri = (Ili − Ilb)/(Ici − Icb) (1) where Ilb and Icb are intensities of background signals in the fluorescent images of A-HgTx and Kv1.3 channels, respectively. Calculating Ri (i.e., normalizing A-HgTx intensity to that of K-ΔKv1.3), a correction was introduced for variations in a level of K-ΔKv1.3 expression on the membrane of particular cells. Ri values of 15–20 cells were averaged to obtain the Rav value, and a standard deviation was calculated.
Concentration of A-HgTx was 2 nM. Concentration of pore blockers C varied as indicated in the graph.
When Kd of A-HgTx and IC50 for the studied compound are known, the apparent dissociation constant Kap of complexes between the compound and channel can be calculated using the Cheng-Prusoff equation [50]:Kap = IC50/(1 + L/Kd)(4) where L is the concentration of A-HgTx in the competitive binding experiment.
In A-HgTx binding experiments, cells were incubated with A-HgTx (0.15–4 nM) for 30 min (37 °C, 5% CO2) in the complete medium. In competitive binding experiments, cells were incubated with A-HgTx (2 nM) and selected pore blocker at variable concentrations (0.5–100 nM for recombinant peptides and 1–20 mM for TEA) for 30 min (37 °C, 5% CO2) in the complete medium.
Experiments with HEK293 cells were performed with a laser scanning confocal microscope Leica-SP2 (Leica Microsystems GmbH, Wetzlar, Germany). The water-immersion 63×/1.2 NA HCX PL APO objective was used.
Each experimental point in the curves describing interaction A-HgTx with mKate2-tagged Kv1.3 channels is an average over 15–25 treated images of cells. […]

[9] = 2 nM A-HgTx, living HEK293 cells
[10] = HgTx1 40 nM vs A-HgTx 2 nM, HEK293 cells

SMILES	effect of A-HgTx binding on membrane distribution of the Kv1.3 channels ([1]; nano-molar A-HgTx, HEK293 cells, confocal imaging)	dissociation of A-HgTx from the cell membrane on washing ([1]; washing HEK293 cells with fresh medium, data not shown)	binding of A-HgTx to K-ΔKv1.3 [2, 9]	binding of A-HgTx to K-Kv1.3 [3, 9]	inhibition at 0.002 µM ([4]; 2 nM A-HgTx, n = 10, read-out: inhibition of K-ΔKv1.3 currents by A-HgTx) [%]	inhibition at 0.01 µM ([4]; 10 nM A-HgTx, n = 3, read-out: inhibition of K-ΔKv1.3 currents by A-HgTx) [%]	binding of A-HgTx at the membrane of intact HEK293 cells (non-specific binding) [5]	binding of A-HgTx at the membrane of K-ΔKv1.3 expressing Neuro-2A cells [6]	binding of A-HgTx to Kv1.3-K [7, 9]	displacement of A-HgTx from K-ΔKv1.3 [2, 10]	displacement of A-HgTx from K-Kv1.3 [3, 10]	displacement of A-HgTx from Kv1.3-K [7, 10]	displacement of A-HgTx from the complexes with K-ΔKv1.3 [8]
CC[C@H](C)[C@@H]1NC(=O)CNC(=O)[C@H](Cc2ccccc2)NC(=O)[C@H](CCC(N)=O)NC(=O)[C@H](C)NC(=O)[C@H](CCCCN)NC(=O)[C@@H]2CSSC[C@@H](C(=O)N[C@@H](Cc3ccc(O)cc3)C(=O)N3CCC[C@H]3C(=O)N[C@@H](Cc3c[nH]cn3)C(=O)O)NC(=O)[C@H](CCCCN)NC(=O)[C@@H]3CSSC[C@H](NC(=O)[C@H](CCC(N)=O)NC(=O)[C@H](CCCCN)NC(=O)[C@@H]4CCCN4C(=O)[C@H](CO)NC(=O)[C@H]([C@@H](C)O)NC(=O)[C@@H](NC(=O)[C@H](CCCCN)NC(=O)[C@@H](NC(=O)[C@H](CC(=O)O)NC(=O)[C@@H](NC(=O)[C@@H](NC(=O)[C@@H](NC(=O)CCCN(C)C(=O)c4ccccc4-c4c5ccc(=N)c(S(=O)(=O)O)c-5oc5c(S(=O)(=O)O)c(N)ccc45)[C@@H](C)O)C(C)C)[C@@H](C)CC)C(C)C)CSSC[C@H](NC(=O)[C@H](CCCCN)NC(=O)[C@H](C)NC(=O)CNC(=O)[C@H](C)NC(=O)[C@H](CCCNC(=N)N)NC1=O)C(=O)N[C@@H](CCSC)C(=O)N[C@@H](CC(N)=O)C(=O)NCC(=O)N[C@@H](CCCCN)C(=O)N3)C(=O)N[C@@H](CC(C)C)C(=O)N1CCC[C@H]1C(=O)N1CCC[C@H]1C(=O)N2 [A-HgTx] (HELM PEPTIDE1{[N=c1ccc2c(-c3ccccc3C(=O)[*:2])c3ccc(N)c(S(=O)(=O)O)c3oc-2c1S(=O)(=O)O].[CN(CCCC(=O)[*:2])[*:1]].T.V.I.D.V.K.C.T.S.P.K.Q.C.L.P.P.C.K.A.Q.F.G.I.R.A.G.A.K.C.M.N.G.K.C.K.C.Y.P.H}$PEPTIDE1,PEPTIDE1,9:R3-31:R3|PEPTIDE1,PEPTIDE1,15:R3-36:R3|PEPTIDE1,PEPTIDE1,19:R3-38:R3$$$V2.0; C-terminus assumed)	does not lead to noticeable changes	rapid (in a few minutes) dissociation	bind A-HgTx	bind A-HgTx	42 ± 6	83 ± 3	negligible non-specific binding; also recorded: No binding of A-HgTx was observed	bound at the membrane of cells expressing K-ΔKv1.3	bind A-HgTx	–	–	–	–
CC[C@H](C)[C@@H]1NC(=O)CNC(=O)[C@H](Cc2ccccc2)NC(=O)[C@H](CCC(N)=O)NC(=O)[C@H](C)NC(=O)[C@H](CCCCN)NC(=O)[C@@H]2CSSC[C@@H](C(=O)N[C@@H](Cc3ccc(O)cc3)C(=O)N3CCC[C@H]3C(=O)N[C@@H](Cc3c[nH]cn3)C(=O)O)NC(=O)[C@H](CCCCN)NC(=O)[C@@H]3CSSC[C@H](NC(=O)[C@H](CCC(N)=O)NC(=O)[C@H](CCCCN)NC(=O)[C@@H]4CCCN4C(=O)[C@H](CO)NC(=O)[C@H]([C@@H](C)O)NC(=O)[C@@H](NC(=O)[C@H](CCCCN)NC(=O)[C@@H](NC(=O)[C@H](CC(=O)O)NC(=O)[C@@H](NC(=O)[C@@H](NC(=O)[C@@H](N)[C@@H](C)O)C(C)C)[C@@H](C)CC)C(C)C)CSSC[C@H](NC(=O)[C@H](CCCCN)NC(=O)[C@H](C)NC(=O)CNC(=O)[C@H](C)NC(=O)[C@H](CCCNC(=N)N)NC1=O)C(=O)N[C@@H](CCSC)C(=O)N[C@@H](CC(N)=O)C(=O)NCC(=O)N[C@@H](CCCCN)C(=O)N3)C(=O)N[C@@H](CC(C)C)C(=O)N1CCC[C@H]1C(=O)N1CCC[C@H]1C(=O)N2 [HgTx1, hongotoxin 1, reference compound] (HELM PEPTIDE1{T.V.I.D.V.K.C.T.S.P.K.Q.C.L.P.P.C.K.A.Q.F.G.I.R.A.G.A.K.C.M.N.G.K.C.K.C.Y.P.H}$PEPTIDE1,PEPTIDE1,7:R3-29:R3|PEPTIDE1,PEPTIDE1,13:R3-34:R3|PEPTIDE1,PEPTIDE1,17:R3-36:R3$$$V2.0; N-terminus and C-terminus assumed)	–	–	–	–	–	–	–	–	–	displaces bound A-HgTx	displaces bound A-HgTx	displaces bound A-HgTx	displaced from the complexes with K-ΔKv1.3

From publication PMC9780825, “Combining mKate2-Kv1.3 Channel and Atto488-Hongotoxin for the Studies of Peptide Pore Blockers on Living Eukaryotic Cells” (Toxins, 2022)
